The source of these data is PubChem BioAssay (NCI).

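Results reflect a 48-hour exposure of cells in 96-well plates to compound at five concentrations. At the TGI there is no net growth.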 Some results are limits rather than exact numbers.

Common to all, as to test: NCI anticancer screen, dose series, 48 h
Assay [1] concerns OVCAR-5 ovarian.
The subject of assay [2] is TK-10 renal.
Assay [3] relates to DU-145 prostate.
For assay [4], the system named is 786-0 renal.
Assay [5] has as its system HOP-62 NSCLC.
In assay [6] the test system is HOP-92 NSCLC.
For assay [7], the system named is M14 melanoma.
Assay [8] concerns U251 CNS.
Assay [9] concerns K-562 leukemia.
For assay [10], the system named is UACC-62 melanoma.
For assay [11], the system named is COLO 205 colon.
Assay [12] relates to A549 NSCLC.
Assay [13] deals with IGROV1 ovarian.
The test system of assay [14] is BT-549 breast.
Assay [15] concerns SK-MEL-5 melanoma.
The subject of assay [16] is NCI-H226 lung.
The test system of assay [17] is HCT-116 colon.
The subject of assay [18] is OVCAR-4 ovarian.
Assay [19] has as its system CAKI-1 renal.
The subject of assay [20] is EKVX NSCLC.

As for `Cc1cc2c(cc1C)C(=O)/C(=C/c1ccccc1C(=O)O)C2`, the TGI in assay [1] was 68.9 µM; in [2], above 100 µM; in [3], above 100 µM; in assay [4] it was above 100 µM; in assay [5] it was above 100 µM; in assay [6], above 100 µM. In addition, the TGI in assay [7] was above 100 µM; in [8], 68.8 µM; in assay [9], above 100 µM; in assay [10], above 100 µM; in assay [11], 36.3 µM; in [12] it was above 100 µM. Further, the TGI in assay [13] was above 100 µM; in assay [14] it was above 100 µM; in assay [15], above 100 µM; in [16] it was 57.8 µM; in assay [17], above 100 µM; in [18], above 100 µM. The TGI in assay [19] and in assay [20] was above 100 µM in each case.

Turning to `O=C(Nc1ncc([N+](=O)[O-])s1)c1ccccc1O`, the TGI in assay [1] is above 100 µM; in assay [2], above 100 µM; in [3], above 89.4 µM; in [4] it was above 100 µM; in assay [5], above 59.6 µM; in assay [6], 7.98 µM. Also, the TGI in [7] was 79.7 µM; in [8], above 100 µM; in [9], above 100 µM; in assay [10], 41.7 µM; in assay [11], 36.1 µM; in assay [12], above 87.4 µM. Further, the TGI in assay [13] is above 100 µM; in assay [14] it was 79.2 µM; in assay [15] it was 37.5 µM; in assay [16], 27.1 µM; in assay [17], 46.4 µM; in [18], above 100 µM. Moreover, the TGI in assay [19] was above 100 µM; in assay [20], above 92.2 µM.

For `Cc1c/c(=N/NC(=O)c2ccncc2)n2nc(N)sc2n1`, the TGI in assay [1], in assay [3], in [4], in assay [5], in assay [6] and in [7] was above 100 µM in each case. Further, the TGI in assay [8], in [9], in assay [10], in assay [11], in assay [12] and in assay [13] was above 100 µM in each case. Further, the TGI in assay [14], in [15], in [16], in [17], in [18] and in [19] was above 100 µM in each case. This compound registered a TGI in assay [20] above 100 µM.

For the compound `CNN1C(=O)c2c(C)c(C)c(C#N)c(N)c2C1=O`, the TGI in assay [1], in [2], in assay [3], in assay [4], in assay [6] and in assay [7] was above 100 µM each time. Moreover, the TGI in assay [8], in [9], in [10], in assay [11], in assay [12] and in [13] was above 100 µM each time. Moreover, the TGI in assay [14], in assay [15], in assay [16], in [17], in assay [18] and in [19] was above 100 µM in each case. In addition, in assay [20], the TGI is above 100 µM.

As to `Cc1cccc(C)c1N1C(=O)C2c3[nH]c4ccccc4c3C3CCC(C(C)(C)C)CC3C2C1=O` (stereo not given), the TGI in assay [1] was determined as 55.9 µM; in assay [2] it was 33.8 µM; in assay [3], 22.5 µM; in assay [4], 20.8 µM; in assay [5] it was 13.7 µM; in assay [6], 23.9 µM. In addition, the TGI in [7] was 32 µM; in assay [8] it was 36.6 µM; in [9] it was 32.7 µM; in assay [10], 36.2 µM; in assay [11] it was 24 µM; in assay [12], above 100 µM. For the same compound, the TGI in assay [13] came out at 42.6 µM; in [14] it was 38.2 µM; in [15], 28.6 µM; in assay [16], 41 µM; in assay [17], 21.3 µM; in [19] it was 26.8 µM. For the same compound, in assay [20], the TGI is 23.4 µM.

`Cc1ccc([N+](=O)[O-])cc1S(=O)(=O)Nc1ccc(C2=NOC(c3ccccc3O)C2)cc1` (stereo not given): the TGI in assay [1], in assay [2], in assay [3], in assay [4], in assay [5] and in assay [6] was above 100 µM each time. Moreover, the TGI in [7] was 6.85 µM; in assay [9], above 100 µM; in assay [10] it was 98.9 µM; in assay [11] it was 19.8 µM; in assay [12] it was 71.8 µM; in assay [13], above 100 µM. In addition, the TGI in assay [14] was 60.3 µM; in assay [15], 49.4 µM; in assay [16], above 100 µM; in assay [17] it was 34.5 µM; in assay [18], 22.4 µM; in [19] it was above 100 µM. In assay [20], this compound returned a TGI above 100 µM.

In the case of `O=c1c2cc(S(=O)(=O)Nc3ccc(Cl)cc3Cl)ccc2ncn1NS(=O)(=O)c1cccc2ccccc12`, the TGI in [1] was above 100 µM; in assay [2] it was above 100 µM; in assay [3] it was above 100 µM; in [4], above 100 µM; in assay [5] it was above 100 µM; in assay [6], 81.4 µM. The TGI in [7], in assay [8], in assay [9], in [10], in assay [11] and in assay [12] was above 100 µM each time. Besides, the TGI is above 100 µM in [13]; 80.6 µM in [14]; above 100 µM in assay [16]; above 100 µM in assay [17]; above 100 µM in assay [18]; 85.7 µM in [19]. The TGI in assay [20] was above 100 µM.
